Laboratory results from patent US8937167B2 (Washington University, priority 2009, dated 2015).
Entries after “also recorded” stand apart in the source; their conditions may differ. Read-outs that look alike come from different tables or passages of the source.

Tests used:
[1] = test system: UTI89 biofilm; assay: UTI89 type 1 dependent biofilm formation (inhibition/prevention) assay on PVC, crystal violet; type: cell-based, uropathogenic E. coli UTI89
Summary of the method: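 Prevention: UTI89 grown in LB in PVC wells at 23° C with mannoside at varying concentrations for 48 h, then crystal violet stained and quantified. Disruption: 24 h UTI89 biofilm, mannoside added, grown 16 h more, then crystal violet.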

[2] = target: T1, FimH lectin domain (residues 1-158 of UPEC J96 FimH) (Escherichia coli, UniProt P08191); type: binding; conditions: Table 20; compound at 100 μM
T1 construct: made in house
Procedure: DSF measures the melting temperature change of protein when binding to small molecules. Melting temperature shifts are proportional to the free energy of binding, and melting temperatures increase even as ligand concentration exceeds the Kd.
FimH lectin domain (residues 1-158 of UPEC J96 FimH, without an affinity tag) was purified as described previously. Five micrograms FimH in 5 μl HBS were mixed with HBS to yield a final volume of 50 μl containing compound at a final concentration of 100 μM and a “5×” final concentration of SYPRO Orange (sold as a “5000×” stock in DMSO and mixed with HBS to a working stock of 50× immediately before use: Life Technologies Inc.; Grand Island, N.Y.). Compounds were diluted to 100 μM from stocks in DMSO and compared to matched control wells with FimH alone plus 0.2% DMSO. 50 μl reactions were placed in 96-well clear-bottom PCR plates and subjected to a melt curve from 20-90° C. in 0.5° C. increments of 15 seconds each followed by a fluorescence read of the “HEX” channel in a Bio-Rad CFX96 thermocycler (Bio-Rad, Hercules, Calif.). Melt curves were fitted to the Boltzmann equation to determine the melting temperature (Tm) (y=A2+(A1−A2)/(1+exp((x−x0)/dx)) where x0 is the Tm) using OriginPro 8 (OriginLab, Northampton Mass.).

[3] = test system: UTI89; assay: Enumeration of bladder IBCs by LacZ staining in infected mice; type: in vivo, E. coli (UPEC); host C3H/HeN mouse; conditions: UTI89 pre-incubated with mannoside (as little as 10 μM); 6 hpi
Procedure: After invasion, UPEC are able to rapidly replicate to form IBCs, thus dramatically expanding in numbers. After maturation of the IBC, bacteria are able to disperse from the biomass and spread to neighboring cells to expand the buildup in bacterial numbers via next generation IBC. The ability of mannosides to block IBC formation was evaluated based on LacZ staining of whole mount bladders, a protocol developed to enumerate IBCs. Whole bladder titers were also determined by quantifying colony forming units (CFUs) at 6 hours post-infection and later time points as test compounds were further developed.
(§1) Enumeration of bladder IBCs. For bacterial pretreatment experiments, mannoside was added to the bacterial suspension and incubated for 20 min. For animal pretreatment experiments, mannoside ZFH-2056 was administered either IP (5 mg/kg) or orally (100 mg/kg) 30 min prior to inoculation with UTI89. To accurately count the number of IBCs, mice were sacrificed 6 hpi and bladders were aseptically removed, bisected, splayed on silicone plates and fixed in 2% paraformaldehyde (v/v). IBCs, readily discernable as punctate violet spots, were quantified by LacZ staining of whole bladders.
as §1, with “For” for “Enumeration of bladder IBCs. For bacterial pretreatment experiments, mannoside was added to the bacterial suspension and incubated for 20 min. For”

T1 sequence (P08191 22-179): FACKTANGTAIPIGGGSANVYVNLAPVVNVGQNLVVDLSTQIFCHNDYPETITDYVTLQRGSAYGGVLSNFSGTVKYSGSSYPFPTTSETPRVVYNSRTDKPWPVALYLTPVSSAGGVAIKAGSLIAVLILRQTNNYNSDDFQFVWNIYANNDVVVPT

Compound | IC50 ([1]; Escherichia coli, read-out: Biofilm Prevention IC50) [µM] | DSF Melting Temp. [2] [°C] | IC50 ([1]; read-out: biofilm inhibition IC50) [µM] | IBC formation [3]
COC(=O)c1cccc(-c2ccc(O[C@H]3O[C@H](CO)[C@@H](O)[C@H](O)[C@@H]3O)cc2)c1 [Compound 1, phenyl mannoside, reference compound] | 0.94 | 73.39 | – | –
CNC(=O)c1cc(C(=O)NC)cc(-c2ccc(O[C@H]3O[C@H](CO)[C@@H](O)[C@H](O)[C@@H]3O)cc2)c1 [ZFH-2056] | – | – | 0.74 | most significant reduction in IBCs; also recorded: reduced IBC formation
